For 22 compounds, GMMIC results are on record in ChEMBL document CHEMBL1159142, “A convenient degradation of polyoxin D to uracil polyoxin C: access to key intermediates and synthesis of antifungal -aminoacyl derivatives of UPOC” (Bioorg Med Chem Lett, 1993).

Molecules are shown by their SMILES.

This experiment deals with Candida albicans. As to the kind of experiment: Geometric mean minimum inhibitory concentration (GMMIC) for whole cell activity against Candida albicans. The experiment is classed as functional.
As for `NC(=O)OC[C@H](O)[C@@H](O)[C@H](N)C(=O)N[C@H](C(=O)O)[C@H]1O[C@@H](n2cc(C(=O)O)c(=O)[nH]c2=O)[C@H](O)[C@@H]1O`, the GMMIC was 153 µg/mL. The figure for `CSCCC(N)C(=O)N[C@H](C(=O)O)[C@H]1O[C@@H](n2ccc(=O)[nH]c2=O)[C@H](O)[C@@H]1O` (some centres not stated) is 49 µg/mL; for `CC[C@@H](O)C(N)C(=O)N[C@H](C(=O)O)[C@H]1O[C@@H](n2ccc(=O)[nH]c2=O)[C@H](O)[C@@H]1O` (some centres not stated) it is greater than 2048 µg/mL. Under `CC[C@H](C)C(N)C(=O)N[C@H](C(=O)O)[C@H]1O[C@@H](n2ccc(=O)[nH]c2=O)[C@H](O)[C@@H]1O` (some centres not stated) stands greater than 2048 µg/mL; under `CC[C@@H](C)C(N)C(=O)N[C@H](C(=O)O)[C@H]1O[C@@H](n2ccc(=O)[nH]c2=O)[C@H](O)[C@@H]1O` (some centres not stated), 44 µg/mL; under `N[C@@H](CCc1ccc(O)cc1)C(=O)N[C@H](C(=O)O)[C@H]1O[C@@H](n2ccc(=O)[nH]c2=O)[C@H](O)[C@@H]1O`, 128 µg/mL. Turning to `N[C@H](C(=O)N[C@H](C(=O)O)[C@H]1O[C@@H](n2ccc(=O)[nH]c2=O)[C@H](O)[C@@H]1O)c1csc(O)c1`, the GMMIC was greater than 2048 µg/mL. The figure for `N[C@@H](Cc1c[nH]c2ccccc12)C(=O)N[C@H](C(=O)O)[C@H]1O[C@@H](n2ccc(=O)[nH]c2=O)[C@H](O)[C@@H]1O` is 2048 µg/mL. The figure for `N[C@@H](Cc1c[nH]c2ccc(F)cc12)C(=O)N[C@H](C(=O)O)[C@H]1O[C@@H](n2ccc(=O)[nH]c2=O)[C@H](O)[C@@H]1O` is greater than 2048 µg/mL.

Take `COc1ccc2[nH]cc(C[C@H](N)C(=O)N[C@H](C(=O)O)[C@H]3O[C@@H](n4ccc(=O)[nH]c4=O)[C@H](O)[C@@H]3O)c2c1`: the GMMIC is greater than 2048 µg/mL. The figure for `N[C@@H](CCc1ccc(O)cn1)C(=O)N[C@H](C(=O)O)[C@H]1O[C@@H](n2ccc(=O)[nH]c2=O)[C@H](O)[C@@H]1O` is 118 µg/mL; for `NCC(=O)N[C@H](C(=O)O)[C@H]1O[C@@H](n2ccc(=O)[nH]c2=O)[C@H](O)[C@@H]1O` it is greater than 2048 µg/mL; for `C[C@H](Cc1ccc(O)cn1)[C@H](N)C(=O)N[C@H](C(=O)O)[C@H]1O[C@@H](n2ccc(=O)[nH]c2=O)[C@H](O)[C@@H]1O` it is 9.3 µg/mL.

`CC(C)[C@H](N)C(=O)N[C@H](C(=O)O)[C@H]1O[C@@H](n2ccc(=O)[nH]c2=O)[C@H](O)[C@@H]1O` registered a GMMIC of 87 µg/mL. The figure for `C[C@H](Cc1ccc(O)cc1)[C@H](N)C(=O)N[C@H](C(=O)O)[C@H]1O[C@@H](n2ccc(=O)[nH]c2=O)[C@H](O)[C@@H]1O` is 35 µg/mL; for `C[C@@H](Cc1ccc(O)cn1)[C@H](N)C(=O)N[C@H](C(=O)O)[C@H]1O[C@@H](n2ccc(=O)[nH]c2=O)[C@H](O)[C@@H]1O` it is 51 µg/mL. The figure for `C=C[C@@H](C)C(N)C(=O)N[C@H](C(=O)O)[C@H]1O[C@@H](n2ccc(=O)[nH]c2=O)[C@H](O)[C@@H]1O` (some centres not stated) is 406 µg/mL. Under `N[C@@H](Cc1c[nH]c2ccc(O)cc12)C(=O)N[C@H](C(=O)O)[C@H]1O[C@@H](n2ccc(=O)[nH]c2=O)[C@H](O)[C@@H]1O` stands 27 µg/mL; under `NC(Cc1c[nH]c2ccc(O)cc12)C(=O)NC[C@H]1OC(n2ccc(=O)[nH]c2=O)[C@H](O)[C@@H]1O` (some centres not stated), greater than 2048 µg/mL; under `NC(Cc1c[nH]c2ccc(O)cc12)C(=O)N[C@H](CO)[C@H]1OC(n2ccc(=O)[nH]c2=O)[C@H](O)[C@@H]1O` (some centres not stated), greater than 2048 µg/mL.

`N[C@H](C(=O)O)[C@H]1OC(n2ccc(=O)[nH]c2=O)[C@H](O)[C@@H]1O` (some centres not stated) gave a GMMIC greater than 2048 µg/mL. `C[C@@H]([C@H](N)C(=O)N[C@H](C(=O)O)[C@H]1O[C@@H](n2ccc(=O)[nH]c2=O)[C@H](O)[C@@H]1O)[C@H](O)c1ccc(O)cn1` [NIKKOMYCIN] displayed a GMMIC of 6 µg/mL.
